# Results from paper PMC3557747 (Bioorganic & medicinal chemistry letters, 2012).
# Like-named read-outs stand apart in the source and are kept apart here.
# How the values were obtained:
# [1] = 50 μM; cited from earlier work
# human IMPDH1 = settings: read-out: IC50 human IMPDH1; cited from earlier work
# CpIMPDH [2] = target: T1, CpIMPDH (Cryptosporidium parvum, UniProt Q8T6T2); settings: with respect to NAD+, cited from earlier work
# T1 sequence (Q8T6T2 1-400): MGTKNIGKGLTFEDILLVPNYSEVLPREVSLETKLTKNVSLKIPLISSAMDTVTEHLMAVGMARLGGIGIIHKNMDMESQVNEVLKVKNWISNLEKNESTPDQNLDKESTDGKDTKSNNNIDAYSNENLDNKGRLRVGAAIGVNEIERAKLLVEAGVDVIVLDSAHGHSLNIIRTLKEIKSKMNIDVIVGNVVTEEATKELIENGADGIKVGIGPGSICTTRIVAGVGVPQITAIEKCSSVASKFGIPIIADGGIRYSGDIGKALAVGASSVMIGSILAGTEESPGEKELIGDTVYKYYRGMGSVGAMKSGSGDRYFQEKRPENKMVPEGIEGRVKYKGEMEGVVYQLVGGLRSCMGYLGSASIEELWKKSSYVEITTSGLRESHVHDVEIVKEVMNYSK
# human IMPDH2 = settings: read-out: IC50 human IMPDH2; cited from earlier work
# T. gondii/CpIMPDH = assay: Antiparasitic activity in Toxoplasma gondii model of C. parvum infection; settings: cultured in hTERT-immortalized human foreskin fibroblasts
# C. parvum = assay: IL12 knockout mouse model of C. parvum infection; type: in vivo; settings: 250 mg/kg oral once per day for seven days
# CpIMPDH [3] = target: T1, CpIMPDH; assay: Mechanism of CpIMPDH inhibition with respect to NAD+; type: biochemical
smiles,measurement,setting,value
COc1ccc(NC(=O)Cc2nn(C)c(=O)c3ccccc23)cc1 [Compound 1],antiparasitic activity,[1],did not display antiparasitic activity
same,IC50,human IMPDH1,> 50 µM
same,Ki,CpIMPDH [2]; read-out: Kis,1.8 µM
same,mode of inhibition,CpIMPDH [2],mixed inhibitor
same,IC50,human IMPDH2,> 50 µM
Cn1nc(CC(=O)Nc2ccc(Br)c(C(F)(F)F)c2)c2ccccc2c1=O [Compound 26],EC50 Toxo/CpIMPDH,T. gondii/CpIMPDH,sub-micromolar activity
Cn1nc(CC(=O)Nc2ccc(Cl)c(C(F)(F)F)c2)c2ccccc2c1=O [Compound 27],antiparasitic activity in vivo,C. parvum,no antiparasitic activity was observed
same,EC50 Toxo/CpIMPDH,T. gondii/CpIMPDH,sub-micromolar activity
same,mode of inhibition,CpIMPDH [3],pure noncompetitive inhibitor
Cn1nc(CC(=O)Nc2ccc3oc4c(c3c2)CCCC4)c2ccccc2c1=O [Compound 53],EC50 Toxo/CpIMPDH,T. gondii/CpIMPDH,sub-micromolar activity
Cn1nc(CC(=O)Nc2ccc3oc4ccccc4c3c2)c2ccccc2c1=O [Compound 54],EC50 Toxo/CpIMPDH,T. gondii/CpIMPDH,sub-micromolar activity
